From US9399635B2, “Pyrazole derivative” (GREEN TECH CO., LTD., priority 2011, dated 2016)

Row | SMILES | melting point [°C]
1 | COc1cc(/C=C/c2cc(/C=C/c3ccc4cc[nH]c4c3)[nH]n2)cc(OCc2ccccn2)c1 [Example 25, 3-[(1E)-2-(1H-indol-6-yl)ethenyl]-5-[(1E)-2-[3-methoxy-5-(2-pyridylmethoxy)phenyl]ethenyl]-1H-pyrazole] | 88 to 93
2 | COc1cc(OCCN2CCCCC2)ccc1/C=C/c1cc(/C=C/c2ccc3cc[nH]c3c2)[nH]n1 [Example 26, 3-[(1E)-2-(1H-indol-6-yl)ethenyl]-5-[(1E)-2-[2-methoxy-4-(2-piperidinoethoxy)phenyl]ethenyl]-1H-pyrazole] | 150 to 155
3 | COc1cc(OCCN2CCN(C)CC2)ccc1/C=C/c1cc(/C=C/c2ccc3cc[nH]c3c2)[nH]n1 [Example 28, 3-[(1E)-2-(1H-indol-6-yl)ethenyl]-5-[(1E)-2-[2-methoxy-4-[2-(4-methylpiperazino)ethoxy]phenyl]ethenyl]-1H-pyrazole] | 134 to 142
4 | COc1cc(O[C@@H]2O[C@H](CO)[C@@H](O)[C@H](O)[C@H]2O)ccc1/C=C/c1cc(/C=C/c2ccc3cc[nH]c3c2)[nH]n1 [Example 29, 3-[(1E)-2-(1H-indol-6-yl)ethenyl]-5-[(1E)-2-[4-[(β-D-glucopyranosyl)oxy]-2-methoxyphenyl]ethenyl]-1H-pyrazole] | 194 to 199
5 | COc1cc(OCc2ccccn2)ccc1/C=C/c1cc(/C=C/c2ccc3[nH]nnc3c2)[nH]n1 [Example 30, 3-[(1E)-2-(1H-benzotriazol-5-yl)ethenyl]-5-[(1E)-2-[2-methoxy-4-(2-pyridylmethoxy)phenyl]ethenyl]-1H-pyrazole] | 113 to 120
6 | COc1cc(OCc2ccccn2)ccc1/C=C/c1cc(/C=C/c2ccc3nccnc3c2)[nH]n1 [Example 32, 3-[(1E)-2-[2-methoxy-4-(2-pyridylmethoxy)phenyl]ethenyl]-5-[(1E)-2-(quinoxalin-6-yl)ethenyl]-1H-pyrazole] | 205 to 213
7 | COc1cc(OCc2ccccn2)ccc1/C=C/c1cc(/C=C/c2cc3ccccc3o2)[nH]n1 [Example 33, 3-[(1E)-2-(benzofuran-2-yl)ethenyl]-5-[(1E)-2-[2-methoxy-4-(2-pyridylmethoxy)phenyl]ethenyl]-1H-pyrazole] | 199.4 to 200.9
8 | COc1cc(OCc2ccccn2)ccc1/C=C/c1cc(/C=C/c2cc3ccccc3s2)[nH]n1 [Example 34, 3-[(1E)-2-(benzothiophen-2-yl)ethenyl]-5-[(1E)-2-[2-methoxy-4-(2-pyridylmethoxy)phenyl]ethenyl]-1H-pyrazole] | 231.1 to 232.1
9 | COc1cc(OCc2ccccn2)ccc1/C=C/c1cc(/C=C/c2c[nH]c3ccccc23)[nH]n1 [Example 38, 3-[(1E)-2-(1H-indol-3-yl)ethenyl]-5-[(1E)-2-[2-methoxy-4-(2-pyridylmethoxy)phenyl]ethenyl]-1H-pyrazole] | 112 to 116
10 | COc1cc(OCc2ccccn2)ccc1/C=C/c1cc(/C=C/c2cccc3[nH]ccc23)[nH]n1 [Example 39, 3-[(1E)-2-(1H-indol-4-yl)ethenyl]-5-[(1E)-2-[2-methoxy-4-(2-pyridylmethoxy)phenyl]ethenyl]-1H-pyrazole] | 108 to 113
11 | COc1cc(OCc2ccccn2)ccc1/C=C/c1cc(/C=C/c2ccc3[nH]ccc3c2)[nH]n1 [Example 40, 3-[(1E)-2-(1H-indol-5-yl)ethenyl]-5-[(1E)-2-[2-methoxy-4-(2-pyridylmethoxy)phenyl]ethenyl]-1H-pyrazole] | 98 to 104
12 | COc1cc(OCc2ccccn2)ccc1/C=C/c1cc(/C=C/c2cccc3cc[nH]c23)[nH]n1 [Example 41, 3-[(1E)-2-(1H-indol-7-yl)ethenyl]-5-[(1E)-2-[2-methoxy-4-(2-pyridylmethoxy)phenyl]ethenyl]-1H-pyrazole] | 99 to 110
13 | COc1cc(OCc2cccnc2)ccc1/C=C/c1cc(/C=C/c2c[nH]c3ccccc23)[nH]n1 [Example 42, 3-[(1E)-2-(1H-indol-3-yl)ethenyl]-5-[(1E)-2-[2-methoxy-4-(3-pyridylmethoxy)phenyl]ethenyl]-1H-pyrazole] | 129 to 137
14 | COc1cc(OCc2ccncc2)ccc1/C=C/c1cc(/C=C/c2c[nH]c3ccccc23)[nH]n1 [Example 43, 3-[(1E)-2-(1H-indol-3-yl)ethenyl]-5-[(1E)-2-[2-methoxy-4-(4-pyridylmethoxy)phenyl]ethenyl]-1H-pyrazole] | 128 to 139
15 | COc1cc(OCc2cccnc2)ccc1/C=C/c1cc(/C=C/c2ccc3[nH]ccc3c2)[nH]n1 [Example 44, 3-[(1E)-2-(1H-indol-5-yl)ethenyl]-5-[(1E)-2-[2-methoxy-4-(3-pyridylmethoxy)phenyl]ethenyl]-1H-pyrazole] | 127 to 135
16 | COc1cc(OCc2ccncc2)ccc1/C=C/c1cc(/C=C/c2ccc3[nH]ccc3c2)[nH]n1 [Example 45, 3-[(1E)-2-(1H-indol-5-yl)ethenyl]-5-[(1E)-2-[2-methoxy-4-(4-pyridylmethoxy)phenyl]ethenyl]-1H-pyrazole] | 133 to 141
17 | COc1cc(OCc2cccnc2)ccc1/C=C/c1cc(/C=C/c2ccc3cc[nH]c3c2)[nH]n1 [Example 46, 3-[(1E)-2-(1H-indol-6-yl)ethenyl]-5-[(1E)-2-[2-methoxy-4-(3-pyridylmethoxy)phenyl]ethenyl]-1H-pyrazole] | 90 to 95
18 | COc1cc(OCc2ccncc2)ccc1/C=C/c1cc(/C=C/c2ccc3cc[nH]c3c2)[nH]n1 [Example 47, 3-[(1E)-2-(1H-indol-6-yl)ethenyl]-5-[(1E)-2-[2-methoxy-4-(4-pyridylmethoxy)phenyl]ethenyl]-1H-pyrazole] | 103 to 118

Second part, the compound after the results:

Row | melting point [°C] | SMILES
19 | 109 to 114 | COc1cc(OCc2cccnc2)ccc1/C=C/c1cc(/C=C/c2cccc3[nH]ccc23)[nH]n1 [Example 48, 3-[(1E)-2-(1H-indol-4-yl)ethenyl]-5-[(1E)-2-[2-methoxy-4-(3-pyridylmethoxy)phenyl]ethenyl]-1H-pyrazole]
20 | 207 to 215 | COc1cc(OCc2ccncc2)ccc1/C=C/c1cc(/C=C/c2cccc3[nH]ccc23)[nH]n1 [Example 49, 3-[(1E)-2-(1H-indol-4-yl)ethenyl]-5-[(1E)-2-[2-methoxy-4-(4-pyridylmethoxy)phenyl]ethenyl]-1H-pyrazole]
21 | 122 to 129 | COc1cc(OCc2cccnc2)ccc1/C=C/c1cc(/C=C/c2cccc3cc[nH]c23)[nH]n1 [Example 50, 3-[(1E)-2-(1H-indol-7-yl)ethenyl]-5-[(1E)-2-[2-methoxy-4-(3-pyridylmethoxy)phenyl]ethenyl]-1H-pyrazole]
22 | 201 to 206 | COc1cc(OCc2ccncc2)ccc1/C=C/c1cc(/C=C/c2cccc3cc[nH]c23)[nH]n1 [Example 51, 3-[(1E)-2-(1H-indol-7-yl)ethenyl]-5-[(1E)-2-[2-methoxy-4-(4-pyridylmethoxy)phenyl]ethenyl]-1H-pyrazole]
23 | 126 to 138 | COc1cc(OCc2cccnc2)ccc1/C=C/c1cc(/C=C/c2cc3ccccc3[nH]2)[nH]n1 [Example 52, 3-[(1E)-2-(1H-indol-2-yl)ethenyl]-5-[(1E)-2-[2-methoxy-4-(3-pyridylmethoxy)phenyl]ethenyl]-1H-pyrazole]
24 | 124 to 134 | COc1cc(OCc2ccncc2)ccc1/C=C/c1cc(/C=C/c2cc3ccccc3[nH]2)[nH]n1 [Example 53, 3-[(1E)-2-(1H-indol-2-yl)ethenyl]-5-[(1E)-2-[2-methoxy-4-(4-pyridylmethoxy)phenyl]ethenyl]-1H-pyrazole]
25 | 121 to 133 | COc1ccc(/C=C/c2cc(/C=C/c3ccc4cc[nH]c4c3)[nH]n2)c(OC)c1 [Example 54, 3-[(1E)-2-(2,4-dimethoxyphenyl)ethenyl]-5-[(1E)-2-(1H-indol-6-yl)ethenyl]-1H-pyrazole]
26 | > 300 | CC(=O)Nc1ccc(/C=C/c2cc(/C=C/c3ccc4cc[nH]c4c3)[nH]n2)cc1 [Example 55, 3-[(1E)-2-[4-(acetylamino)phenyl]ethenyl]-5-[(1E)-2-(1H-indol-6-yl)ethenyl]-1H-pyrazole]
27 | 175 to 182 | C(=C\c1cc(/C=C/c2ccc3cc[nH]c3c2)[nH]n1)/c1ccc(Oc2ccccc2)cc1 [Example 56, 3-[(1E)-2-(1H-indol-6-yl)ethenyl]-5-[(1E)-2-(4-phenoxyphenyl)ethenyl]-1H-pyrazole]
28 | 260 to 268 | CS(=O)(=O)c1ccc(/C=C/c2cc(/C=C/c3ccc4cc[nH]c4c3)[nH]n2)cc1 [Example 57, 3-[(1E)-2-(1H-indol-6-yl)ethenyl]-5-[(1E)-2-[4-(methanesulfonyl)phenyl]ethenyl]-1H-pyrazole]
29 | 248 to 255 | C(=C\c1cc(/C=C/c2ccccc2-c2cccnc2)n[nH]1)/c1ccc2cc[nH]c2c1 [Example 59, 3-[(1E)-2-(1H-indol-6-yl)ethenyl]-5-[(1E)-2-[2-(3-pyridyl)phenyl]ethenyl]-1H-pyrazole]
30 | 137 to 142 | COc1cc(Br)c(/C=C/c2cc(/C=C/c3ccc4cc[nH]c4c3)[nH]n2)cc1O [Example 60, 3-[(1E)-2-(2-bromo-5-hydroxy-4-methoxyphenyl)ethenyl]-5-[(1E)-2-(1H-indol-6-yl)ethenyl]-1H-pyrazole]
31 | 273 to 276 | C(=C\c1cc(/C=C/c2ccc3cc[nH]c3c2)[nH]n1)/c1ccc(-c2ccccc2)cc1 [Example 61, 3-[(1E)-2-(1H-indol-6-yl)ethenyl]-5-[(1E)-2-(4-phenylphenyl)ethenyl]-1H-pyrazole]
32 | 120 to 124 | CN1CCN(c2ccc(/C=C/c3cc(/C=C/c4ccc5cc[nH]c5c4)[nH]n3)c(Br)c2)CC1 [Example 62, 3-[(1E)-2-[2-bromo-4-(4-methylpiperazin-1-yl)phenyl]ethenyl]-5-[(1E)-2-(1H-indol-6-yl)ethenyl]-1H-pyrazole]
33 | 114 to 119 | COc1cc(OC(c2ccccc2)c2ccccc2)ccc1/C=C/c1cc(/C=C/c2ccc3cc[nH]c3c2)[nH]n1 [Example 64, 3-[(1E)-2-[4-(diphenylmethoxy)-2-methoxyphenyl]ethenyl]-5-[(1E)-2-(1H-indol-6-yl)ethenyl]-1H-pyrazole]
34 | 107 to 113 | COc1cc(OC(C)C)ccc1/C=C/c1cc(/C=C/c2ccc3cc[nH]c3c2)[nH]n1 [Example 65, 3-[(1E)-2-(1H-indol-6-yl)ethenyl]-5-[(1E)-2-(4-isopropoxy-2-methoxyphenyl)ethenyl]-1H-pyrazole]
